Reference: patent US20230382915A1, “GCN2 AND PERK KINASE INHIBITORS AND METHODS OF USE THEREOF” (Deciphera Pharmaceuticals, LLC, priority 2021, published 2023)

Legend:
[1] = tested on: LoVo colorectal xenograft; test: LoVo xenograft efficacy model; format: in vivo, mice; settings: 5 mg/kg BID, 22 days of dosing
Procedure: The LoVo xenograft model was performed in compliance with all the laws, regulations and guidelines of the National Institutes of Health (NIH) and with the approval of the Animal Care and Use Committee of Crown Bioscience (Taicang, China), an AAALAC accredited facility. Food and water were provided ad libitum. […] Female Balb/c nude mice (5-9 weeks old) were inoculated subcutaneously just below the right high axilla with ten million cells in Dulbecco's Phosphate Buffered Saline, using a 27-gauge needle and syringe. When tumor burdens reached 100 mm 3 on average on day 6, mice were randomly assigned into groups such that the mean tumor burden for all groups was within 10% of the overall mean tumor burden for the study population. Groups were treated on days 6-27 as follows: vehicle control (dosed orally) (n=9); Compound 2 dosed orally at 5 mg/kg BID (n=9); Compound 2 dosed orally at 1 mg/kg BID. Tumor volume and body weights were measured three time per week. Tumor burden (mg) was estimated from caliper measurements by the formula: tumor burden (mg=mm 3)=(length×width 2)/2.

[2] = tested on: H2030 spheroids; test: Spheroid Western blot assay, H2030; format: cell-based
Procedure: NSCLC cell lines H358 (catalog #CRL-5807) and H2030 (catalog #CRL-5914), and fibrosarcoma cell line HT-1080 (catalog […]) were obtained from the American Type Culture Collect (ATTC, Manassas, VA). Cells were grown in RPMI-1640 medium supplemented with 10% heat-inactivated fetal bovine serum and 1% Penicillin/Streptomycin/L-Glutamine (Invitrogen, Carlsbad, CA) at 37° C., 5% CO2, and 95% humidity and maintained at 50-80% confluency until use. Cells were plated at 500,000 cells/well in 24-well Elplasia plates (Corning, Glendale, AZ) with complete growth media at 1 mL/well and incubated overnight at 37° C., 5% CO2, and 95% humidity to form spheroids. The next day, serial dilutions of test compounds were prepared in complete growth media and 500 μL existing media was removed from each well and replaced with fresh media containing compound titers. Spheroids were then incubated with test compounds for 4 hours or 24 hours under the same conditions. […] Western blots were performed to quantify phospho-GCN2 (R&D Systems, Minneapolis, MN), ATF4, CHOP, cleaved PARP, cleaved Caspase 3 and 7, and beta-Actin (Cell Signaling Technology, Danvers, MA). […]

[3] = tested on: RPMI8226 Multiple Myeloma cells; test: Cell proliferation, combination with standard of care, RPMI8226; format: cell-based; settings: Homo sapiens, RPMI-8226; with 333 nM dexamethasone, 96 h, FIG. 6A; read-out: inhibition of cell proliferation IC50, combination treatment
Procedure: H929, RPMI8226, GA-10 and DoHH-2 cells (catalog #CRL-9068) were obtained from the American Type Culture Collection (ATTC, Manassas, VA). H929 Cells were maintained in RPMI-1640 medium supplemented with 20% heat-inactivated fetal bovine serum (catalog #A3840002, ThermoFisher Scientific, Waltham, MA), 1% Penicillin/Streptomycin/L-Glutamine (catalog #10378016, ThermoFisher Scientific, Waltham, MA), and 0.05 mM 2-mercaptoethanol (catalog #21985-023, ThermoFisher Scientific, Waltham, MA). […]
For cell proliferation assay appropriate number of cells (Forty thousand cells for H929. Twenty thousand cells for RPMI8226 and GA-10. Eight thousand cells for DoHH-2) were seeded per well in 200 μL in respective medium were dispensed into a 96-well black clear bottom plate. […] Plates were read on a Synergy2 or equivalent reader (Biotek, Winooski VT) using an excitation of 540 nm and an emission of 600 nm. At the end of the incubation of DoHH-2, cell viability was determined using CellTiter-Glo® assay (Promega, Madison, WI). Luminescence was measured using EnVision MultiLabel Reader (PerkinElmer, Waltham, MA). Data was analyzed using GraphPad Prism software (GraphPad, San Diego, CA) to calculate IC50 values.

[4] = tested on: CCRF-CEM leukemia cells; test: CCRF-CEM ASNase cell proliferation assay; format: cell-based; settings: Homo sapiens, 1 mU/mL ASNase, 72 h
Procedure: CCRF-CEM leukemia cells (catalog #CCL-116) were obtained from the American Type Culture Collect (ATTC, Manassas, VA). Cells were grown in RPMI-1640 medium supplemented with 10% heat-inactivated fetal bovine serum (Invitrogen, Carlsbad, CA) and 1% Penicillin/Streptomycin/L-Glutamine at 37° C., 5% CO2, and 95% humidity. Cells were expanded until reaching one million cells per mL at which time they are subcultured or harvested for assay use. Ten thousand cells per well in 200 μL RPMI-1640 supplemented with 10% heat-inactivated fetal bovine serum and 1% Penicillin/Streptomycin were dispensed into a 96-well black clear bottom plate. A serial dilution of test compound and 1 mU/mL ASNase was added in triplicate and plates were incubated for 72 h at 37° C., 5% CO2, and 95% humidity. At the end of the incubation, 40 μL of a […] solution of resazurin (Sigma, St. Louis, MO) in PBS was added to each well of the plate and plates were incubated for an additional 6 h at 37° C., 5% CO2, and 95% humidity. Plates were read on a Synergy2 or equivalent reader (Biotek, Winooski VT) using an excitation of 540 nm and an emission of 600 nm. Data was analyzed using GraphPad Prism software (GraphPad, San Diego, CA) to calculate IC50 values.

Cn1cc(-c2cccc(NS(=O)(=O)c3cc(Cl)cc(CO)c3Cl)c2F)c2c(N)ncnc21 [Example 2, N-(3-(4-amino-7-methyl-7H-pyrrolo[2,3-d]pyrimidin-5-yl)-2-fluorophenyl)-2,5-dichloro-3-(hydroxymethyl)benzenesulfonamide]
mean tumor growth inhibition [1]: 69% | upregulation of ATF4 (Western blot quantification) [2]: up to 20 fold | IC50 [3]: 7 nM | IC50 [4]: ≤ 100 nM
